Assay results as given in ChEMBL document CHEMBL5226361, “Marine Sponge-Derived Alkaloid Induces Mitochondrial Dysfunction and Inhibits the PI3K/AKT/mTOR Signaling Pathway against Burkitt's Lymphoma” (J Nat Prod, 2023).
The source made the active and inactive calls. The rule behind the calls is not given here.

What was measured:
Daudi [1] = experiment: Induction of cell cycle arrest at G0/G1 phase in human Daudi cells assessed as upregulation of gamma-H2AX protein expression at 0.75 to 3 uM incubated for 24 to 48 hrs by Western blot analysis; format: functional, cell-based; details: dose 0.75-3 µM, time 24-48 hrs
Raji [2] = experiment: Induction of cell cycle arrest at G0/G1 phase in human Raji cells assessed as downregulation of CDK4 protein expression at 1.25 to 5 uM incubated for 24 to 48 hrs by Western blot analysis; format: functional, cell-based; details: dose 1.25-5 µM, time 24-48 hrs
Raji [3] = experiment: Induction of cell cycle arrest at G0/G1 phase in human Raji cells assessed as downregulation of CyclinE1 protein expression at 1.25 to 5 uM incubated for 24 to 48 hrs by Western blot analysis; format: functional, cell-based; details: dose 1.25-5 µM, time 24-48 hrs
Raji [4] = experiment: Induction of cell cycle arrest at G0/G1 phase in human Raji cells assessed as upregulation of gamma-H2AX protein expression at 1.25 to 5 uM incubated for 24 to 48 hrs by Western blot analysis; format: functional, cell-based; details: dose 1.25-5 µM, time 24-48 hrs
Daudi [5] = experiment: Induction of cell cycle arrest in human Daudi cells assessed as G2 phase cells at 3 uM incubated for 24 hrs by PI staining based flow cytometry analysis (reference value: 25.92%); format: functional
Daudi [6] = experiment: Induction of apoptosis in human Daudi cells assessed as effect on cleaved caspase-8 protein expression at 0.75 to 3 uM incubated for 24 hrs by Western blot analysis; format: functional, cell-based; details: dose 0.75-3 µM
Raji [7] = experiment: Induction of apoptosis in human Raji cells assessed as upregulation of cleaved PARP expression at 1.25 to 5 uM incubated for 24 hrs by Western blot analysis; format: functional, cell-based; details: dose 1.25-5 µM
Raji [8] = experiment: Induction of apoptosis in human Raji cells assessed as nuclear fragmentation incubated for 48 hrs by Hoechst 33258/PI staining based fluorescence microscopic analysis; format: functional, cell-based; details: dose 1.25-5 µM
Daudi [9] = experiment: Induction of mitochondrial oxidative damage in human Daudi cells assessed as increase in intracellular mitochondrial superoxide generation at 3 uM incubated for 1 to 6 hrs by MitoSOX red dye based flow cytometric analysis; format: functional, cell-based; details: time 1-6 hrs
Daudi [10] = experiment: Induction of mitochondrial dysfunction in human Daudi cells assessed as decrease in ATP content incubated for 24 hrs by CellTiter-Lumi […] assay; format: functional, cell-based; details: dose 0.75-3 µM
Daudi [11] = experiment: Induction of mitochondrial respiratory chain damage in human Daudi cells assessed as decrease in NDUFV2 protein expression at 1.5 to 3 uM incubated for 48 hrs by Western blot analysis; format: functional, cell-based; details: dose 1.5-3 µM
Daudi [12] = experiment: Induction of mitochondrial respiratory chain damage in human Daudi cells assessed as decrease in CYC1 protein expression at 1.5 to 3 uM incubated for 48 hrs by Western blot analysis; format: functional, cell-based; details: dose 1.5-3 µM
Raji [13] = experiment: Induction of mitochondrial respiratory chain damage in human Raji cells assessed as decrease in CYC1 protein expression at 2.5 to 5 uM incubated for 48 hrs by Western blot analysis; format: functional, cell-based; details: dose 2.5-5 µM
Daudi [14] = experiment: Effect on total mTOR protein level in human Daudi cells at 0.75 to 3 uM incubated for 24 hrs by Western blot analysis; format: functional, cell-based; details: dose 0.75-3 µM
[15] = Inhibition of PI3K/AKT/mTOR signalling pathway in human Daudi cells assessed as increase in ratio of PI3K phosphorylation to total PI3K protein level at 3 uM incubated for 12 hrs in the presence of YS49 by Western blot analysis; format: cell-based
[16] = Inhibition of PI3K/AKT/mTOR signalling pathway in human Raji cells assessed as increase in ratio of AKT phosphorylation at […] residue to total AKT protein level at 5 uM incubated for 12 hrs in the presence of YS49 by Western blot analysis; format: cell-based
Daudi [17] = experiment: Induction of apoptosis in human Daudi cells assessed as viable cells at 3 uM incubated for 24 hrs by Annexin V-FITC/PI staining based flow cytometric analysis (reference value: 97.2%); format: functional; details: read-out: Activity
Daudi [18] = experiment: Induction of apoptosis in human Daudi cells assessed as late apoptotic cells at 3 uM incubated for 24 hrs by Annexin V-FITC/PI staining based flow cytometric analysis (reference value: 0.0%); format: functional
Daudi [19] = experiment: Induction of apoptosis in human Daudi cells assessed as late apoptotic cells at 3 uM incubated for 24 hrs in the presence of YS49 by Annexin V-FITC/PI staining based flow cytometric analysis (reference value: 0.0%); format: functional
Raji [20] = experiment: Induction of apoptosis in human Raji cells assessed as late apoptotic cells at 5 uM incubated for 24 hrs in the presence of YS49 by Annexin V-FITC/PI staining based flow cytometric analysis (reference value: 0.0%); format: functional
Raji [21] = experiment: Induction of apoptosis in human Raji cells assessed as necrotic cells at 5 uM incubated for 24 hrs in the presence of YS49 by Annexin V-FITC/PI staining based flow cytometric analysis (reference value: 1.5%); format: functional

COc1c(OC)c2c3c(nccc3c1-c1cc(C)cc(C)c1)C(c1cc(C)cc(C)c1)=CN2
Activity (Daudi [1]): Active
Activity (Raji [2]): Active
Activity (Raji [3]): Active
Activity (Raji [4]): Active
Activity (Daudi [5]): 20.27%
Activity (Daudi [6]): inactive
Activity (Raji [7]): Active
Activity (Raji [8]): Dose-Dependent Effect
Activity (Daudi [9]): Active
Activity (Daudi [10]): Dose-Dependent Effect
Activity (Daudi [11]): Active
Activity (Daudi [12]): Active
Activity (Raji [13]): Active
Activity (Daudi [14]): inactive
inhibition [15]: inactive
inhibition [16]: inactive
viability at 3 µM (Daudi [17]): 72.7%
Activity (Daudi [18]): 5.4%
Activity (Daudi [19]): 1.5%
Activity (Raji [20]): 0.9%
Activity (Raji [21]): 20.8%
